According to patent US10975352B2, “Methods of enhancing cell survival of stem cells” (The Scripps Research Institute, priority 2008, dated 2021):

What was measured:
hESCs [1] = assay: Cell death analysis of dissociated hESCs in suspension culture; type: cell-based, human
Source text: hESCs are known to be difficult in forming embryoid bodies (EBs) in suspension culture after single cell dissociation due to extensive cell death. Thus, we also tested whether Tzv or Ptn could promote survival of dissociated hESCs in suspension. […] Because cell aggregation is most often mediated through cell-cell adhesions and E-cadherin is the primary cell-cell adhesion molecule, as well as highly expressed in hESCs (Eastham, A. M. et al., Cancer Res 67 (23): 11254-11262 (2007)), we tested the effect of a specific E-cadherin blocking antibody on multicellular aggregate formation.
The hESCs under different treatments were dissociated by trypsin and fixed by 4% paraformaldehyde. And the staining was carried out according to the manufacturer's instructions (MBL Laboratories, Watertown, Mass.). After staining, samples were analysed by flow cytometry using a FACS Calibur flow cytometer (BD).

[2] = tested on: mouse P1 cortical explants; assay: Axon outgrowth from mouse P1 cortical explants; type: cell-based; details: 3 μM; added 20 minutes after plating; 4 days in culture; DMSO control
Procedure: Compounds of formula I and III (i.e., Tvz and Ptn) are effective at promoting axonal regeneration and functional recovery in injured central nervous system. […] Tzv (3 μM) was tested on mouse P1 cortical explants, with axon outgrowth as an outcome read-out. Tzv was added to the medium 20 minutes after plating, with DMSO as a control. […] Accordingly, in some embodiments, a compound of the present invention is administered to an individual having a central nervous system injury or who is in need or would otherwise benefit from axonal regeneration.

hESCs [3] = assay: Karyotyping (G-banding) of long-term expanded hESCs; type: cell-based, human; details: more than 20 generations; chemically-defined medium
Procedure: Teratoma formation experiments were performed by injecting 3-5 million hESCs (maintained in the presence of compounds Tvz or Ptn) under the kidney capsule of nude mice. After 4-5 weeks, all mice developed teratomas, which were removed and then immunohistologically analyzed by The Scripps Research Institute Research Histology Service and Animal Resources. Compounds treated cells were karyotyped by standard G-banding at the Children's Hospital Oakland, Cytogenetics Laboratory. No chromosomal abnormality was found in the 10 randomly picked nuclei.

O=C(NCc1ccccc1)c1csc(Nc2ccncn2)n1 [Tzv, N-benzyl-2-(pyrimidin-4-ylamino)thiazole-4-carboxamide]
survival of dissociated hESCs in suspension culture (hESCs [1]): greatly improved survival
axon outgrowth [2]: dramatic effect in promoting axon outgrowth
karyotype of hESCs serially passaged in compound-containing medium (hESCs [3]): normal karyotype
